Test results: ChEMBL document CHEMBL1201862, “PubChem BioAssay data set” (2004)
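Cells were grown in 96-well plates and exposed to each compound for 48 hours at five concentrations; endpoints were interpolated linearly between bracketing concentrations, or set to the highest concentration if not reached. GI50 is the concentration that inhibits growth by half.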 Active and inactive are the calls of the source. Cut-off read from the data, not from the text of the source: active = GI50 up to about 1.1 µM and inactive = higher.

Legend:
Assay in all cases: inhibition of tumour cell growth, NCI panel, 48 h
A498 = test system: A498
OVCAR-3 = test system: OVCAR-3
HL-60 = test system: HL-60
786-0 = test system: 786-0
MCF7 = test system: MCF7
SK-MEL-5 = test system: SK-MEL-5
RPMI-8226 = test system: RPMI-8226
DU-145 = test system: DU-145
MDA-MB-231 = test system: MDA-MB-231
SK-OV-3 = test system: SK-OV-3
UACC-62 = test system: UACC-62
CCRF-CEM = test system: CCRF-CEM
NCI-H23 = test system: NCI-H23
RXF 393 = test system: RXF 393
NCI-H522 = test system: NCI-H522
KM12 = test system: KM12
ACHN = test system: ACHN
SR = test system: SR
M14 = test system: M14
A549 = test system: A549

Measured: GI50

COC(=O)C1=C(OC(=O)/C=C/c2ccccc2)C(C(=O)OC)[C@@]2(O)[C@@H](C(=O)OC)[C@H](C)C[C@@H]1[C@@H]2C(=O)OC (stereo not given in full)
inactive: A498 13.3 µM | OVCAR-3 19.9 µM | HL-60 39.2 µM | 786-0 17.1 µM | MCF7 19.3 µM | SK-MEL-5 26.9 µM | RPMI-8226 8.47 µM | DU-145 18 µM | MDA-MB-231 14.8 µM | SK-OV-3 21.4 µM | UACC-62 12.6 µM | CCRF-CEM 56.5 µM | NCI-H23 17.3 µM | RXF 393 4.05 µM | NCI-H522 5.58 µM | KM12 27.9 µM | ACHN 22.8 µM | SR > 100 µM | M14 25.5 µM | A549 15.3 µM

Cc1cnc2[nH]c(-c3cccc(Cl)c3)cc(=O)c2c1
active: A498 0.0556 µM | OVCAR-3 0.0216 µM | HL-60 < 0.0176 µM | 786-0 0.0547 µM | MCF7 0.381 µM | SK-MEL-5 0.0461 µM | RPMI-8226 < 0.0206 µM | DU-145 0.154 µM | MDA-MB-231 0.0569 µM | SK-OV-3 0.0508 µM | UACC-62 0.0224 µM | CCRF-CEM 0.0425 µM | NCI-H23 0.375 µM | RXF 393 0.0367 µM | NCI-H522 0.0294 µM | KM12 0.102 µM | ACHN 0.507 µM | SR 0.0345 µM | M14 0.0406 µM | A549 0.0676 µM

COc1c(-c2nc3ccc(N4CCN(C)CC4)cc3[nH]2)cc(OC)c2[nH]c(CO)nc12
inactive: A498 > 100 µM | OVCAR-3 > 100 µM | HL-60 14.1 µM | 786-0 90.8 µM | MCF7 54.3 µM | SK-MEL-5 > 100 µM | RPMI-8226 > 100 µM | DU-145 84.5 µM | MDA-MB-231 74 µM | SK-OV-3 > 100 µM | UACC-62 > 100 µM | CCRF-CEM 13.3 µM | NCI-H23 > 100 µM | RXF 393 > 100 µM | NCI-H522 65.2 µM | KM12 49.3 µM | ACHN > 100 µM | SR > 100 µM | M14 > 100 µM | A549 > 100 µM

CCOP1(=O)CC(C)=C(Cl)C(O)C1 (stereo not given)
inactive: A498 > 100 µM | OVCAR-3 > 100 µM | HL-60 > 100 µM | 786-0 > 100 µM | MCF7 > 100 µM | SK-MEL-5 > 100 µM | RPMI-8226 > 100 µM | DU-145 > 100 µM | MDA-MB-231 > 100 µM | SK-OV-3 > 100 µM | UACC-62 > 100 µM | CCRF-CEM > 100 µM | NCI-H23 > 100 µM | RXF 393 > 100 µM | NCI-H522 > 100 µM | KM12 > 100 µM | ACHN > 100 µM | SR > 100 µM | M14 > 100 µM | A549 > 100 µM

Cc1nc2c(O)c3c(c(O)c2nc1C)C1C=CC3CC1
inactive: A498 42.9 µM | OVCAR-3 6.22 µM | 786-0 13.9 µM | MCF7 9.75 µM | SK-MEL-5 14 µM | RPMI-8226 2.92 µM | DU-145 > 75.3 µM | MDA-MB-231 3.02 µM | SK-OV-3 22 µM | UACC-62 21.2 µM | CCRF-CEM 1.25 µM | NCI-H23 5.86 µM | RXF 393 9.23 µM | NCI-H522 16 µM | KM12 15.7 µM | ACHN 11.2 µM | SR 9.59 µM | M14 15.3 µM | A549 24.9 µM
active: HL-60 0.973 µM

COc1cc(C(c2cccc3ccccc23)N2C(=O)CCC2C(=O)NCc2ccccc2)cc(OC)c1OC (stereo not given)
inactive: A498 > 100 µM | OVCAR-3 > 100 µM | HL-60 57.7 µM | 786-0 > 100 µM | MCF7 > 100 µM | SK-MEL-5 > 100 µM | RPMI-8226 55.3 µM | DU-145 > 100 µM | MDA-MB-231 > 100 µM | SK-OV-3 > 100 µM | UACC-62 64.6 µM | CCRF-CEM 93.3 µM | NCI-H23 > 100 µM | RXF 393 > 100 µM | NCI-H522 > 100 µM | KM12 > 100 µM | SR > 100 µM | M14 > 100 µM | A549 > 100 µM

C[N+](C)(C)[BH-](Br)C(O)O (stereo not given)
inactive: A498 > 100 µM | OVCAR-3 > 100 µM | HL-60 > 100 µM | 786-0 > 100 µM | MCF7 > 100 µM | SK-MEL-5 > 100 µM | DU-145 > 100 µM | MDA-MB-231 > 100 µM | UACC-62 > 100 µM | CCRF-CEM > 100 µM | NCI-H23 > 100 µM | RXF 393 > 100 µM | NCI-H522 > 100 µM | KM12 > 100 µM | ACHN > 100 µM | SR > 100 µM | M14 > 100 µM | A549 > 100 µM

CN(C)Cc1cc(C(=O)/C=C/c2ccc(/C=C/C(=O)c3cc(CN(C)C)c(O)c(CN(C)C)c3)cc2)cc(CN(C)C)c1O
inactive: A498 57.9 µM | OVCAR-3 32.1 µM | HL-60 14.1 µM | 786-0 19.6 µM | MCF7 9.42 µM | SK-MEL-5 42.9 µM | RPMI-8226 23.4 µM | DU-145 38.5 µM | MDA-MB-231 20.3 µM | UACC-62 25.9 µM | CCRF-CEM 9.57 µM | NCI-H23 18.7 µM | RXF 393 26.7 µM | NCI-H522 10.5 µM | KM12 17.7 µM | ACHN 23.4 µM | SR 22.8 µM | M14 17 µM | A549 43 µM

COc1ccc(Nc2nc3cc(C(F)(F)F)ccc3nc2C(=O)O)cc1
inactive: A498 15.1 µM | OVCAR-3 12.6 µM | HL-60 19.9 µM | 786-0 17.5 µM | MCF7 20.9 µM | SK-MEL-5 16.7 µM | DU-145 20.4 µM | MDA-MB-231 31.6 µM | UACC-62 13.6 µM | NCI-H23 14.4 µM | RXF 393 11.9 µM | NCI-H522 12.4 µM | KM12 24 µM | ACHN 28.3 µM | SR 11.1 µM

CC(=O)c1nc2ccccc2n1CC(=O)c1ccc(Cl)cc1
inactive: A498 54.3 µM | OVCAR-3 4.37 µM | HL-60 1.79 µM | 786-0 3.13 µM | MCF7 3.73 µM | RPMI-8226 3.65 µM | DU-145 13.4 µM | MDA-MB-231 2.79 µM | SK-OV-3 28.1 µM | UACC-62 2.02 µM | CCRF-CEM 4.09 µM | NCI-H23 7.64 µM | RXF 393 17.6 µM | NCI-H522 2.79 µM | KM12 3.02 µM | SR 4.84 µM | M14 2.92 µM | A549 3.17 µM

COc1cc(C2c3cc4c(cc3CC3COC(=O)N32)OCO4)cc(OC)c1OC (stereo not given)
inactive: A498 6.31 µM | OVCAR-3 1.93 µM | HL-60 2.08 µM | 786-0 3.09 µM | MCF7 3.84 µM | SK-MEL-5 1.96 µM | RPMI-8226 3.13 µM | DU-145 5.33 µM | MDA-MB-231 3.71 µM | SK-OV-3 3.03 µM | UACC-62 2.61 µM | CCRF-CEM 2.56 µM | RXF 393 1.57 µM | NCI-H522 1.57 µM | KM12 2.44 µM | ACHN 12.8 µM | SR 1.57 µM | M14 3.37 µM | A549 3.08 µM

CCOC(=O)CN1C(=O)c2ccc(NC(=O)C(=O)O)cc2S1(=O)=O
inactive: A498 > 100 µM | HL-60 > 100 µM | 786-0 > 100 µM | MCF7 > 100 µM | SK-MEL-5 > 100 µM | RPMI-8226 > 100 µM | DU-145 > 100 µM | MDA-MB-231 > 100 µM | SK-OV-3 > 100 µM | UACC-62 > 100 µM | CCRF-CEM > 100 µM | NCI-H23 > 100 µM | RXF 393 > 100 µM | NCI-H522 > 100 µM | KM12 > 100 µM | ACHN > 100 µM | SR > 100 µM | M14 > 100 µM | A549 > 100 µM

CC(=O)OCC1OC(O[C@@H]2c3c(O)c4c(c(O)c3C3=C(NN(c5ccc([N+](=O)[O-])cc5[N+](=O)[O-])[Se]3=O)[C@@]2(C)O)C(=O)c2ccccc2C4=O)C(OC(C)=O)C(OC(C)=O)C1OC(C)=O (stereo not given in full)
active: A498 0.288 µM | OVCAR-3 0.158 µM | 786-0 0.147 µM | MCF7 0.207 µM | SK-MEL-5 0.2 µM | RPMI-8226 0.16 µM | DU-145 0.365 µM | MDA-MB-231 0.346 µM | SK-OV-3 0.281 µM | UACC-62 0.27 µM | CCRF-CEM 0.0352 µM | NCI-H23 0.251 µM | RXF 393 0.31 µM | NCI-H522 0.124 µM | KM12 0.338 µM | ACHN 0.222 µM | SR 0.179 µM | M14 0.254 µM | A549 0.314 µM

COc1cc(S(=O)(=O)Nc2nc(-c3ccc(/N=C/c4cccs4)cc3)cs2)ccc1Cl
inactive: A498 > 100 µM | OVCAR-3 27.5 µM | HL-60 33.9 µM | 786-0 > 100 µM | MCF7 36.6 µM | SK-MEL-5 > 100 µM | DU-145 > 100 µM | MDA-MB-231 95.1 µM | SK-OV-3 > 100 µM | UACC-62 19.8 µM | CCRF-CEM 33.7 µM | NCI-H23 47.1 µM | RXF 393 20.4 µM | NCI-H522 28.4 µM | KM12 67.1 µM | ACHN > 100 µM | SR 21.7 µM | M14 > 100 µM | A549 > 100 µM
